Values of other authors, collected in patent publication US20100167984A1, “Complex between human insulin and an amphiphilic polymer and use of this complex in the preparation of a fast-acting human insulin formulation” (ADOCIA, priority 2008, published 2010).

Legend:
[1] = due to dissociation equilibria of hexamers; Brange J. et al. 1999
[2] = hexamer form, at 4° C.

Human insulin: human insulin, assembled in the hexamer form
slowing down of action in comparison with a fast-acting insulin analog [1]: approximately 20 minutes
stability (storage time) [2]: approximately 2 years
